test system: WI-38; assay: Cytotoxicity aganist human WI-38 cells; assay type: cell-based; details: not given

SMILES	IC50
FC(F)(F)c1cc2cc(c1)Nc1nc(nc(-c3cccc(C(F)(F)F)n3)n1)NCCOC/C=C\C2	10000 nM
FC(F)(F)c1cc2cc(c1)Nc1nc(nc(-c3cccc(C(F)(F)F)n3)n1)NCCOCCCC2	10000 nM
CC1(C)CNc2nc(nc(-c3cccc(C(F)(F)F)n3)n2)Nc2cc(cc(C(F)(F)F)c2)CCCCO1	10000 nM

test system: not listed separately; assay: Tmax in Sprague-Dawley rat at 10 mg/kg, po measured up to 24 hrs by LC-MS/MS analysis; assay type: ADME, organism-based; details: in vivo

Tmax	SMILES
1.33 h	CS(=O)(=O)O.FC(F)(F)c1cc2cc(c1)Nc1nc(nc(-c3cccc(C(F)(F)F)n3)n1)NCCCCCC2

target: Isocitrate dehydrogenase [NADP], mitochondrial (Homo sapiens, UniProt P48735, R140Q); assay: Inhibition of IDH2 R140Q mutant (unknown origin) assessed as reduction in NADPH consumption using alpha-ketoglutarate and NADPH as substrate preincubated with enzyme for 15 mins followed by substrate addition by fluorescence based assay; details: not given
Sequence (P48735 40-452 R140Q limits assumed): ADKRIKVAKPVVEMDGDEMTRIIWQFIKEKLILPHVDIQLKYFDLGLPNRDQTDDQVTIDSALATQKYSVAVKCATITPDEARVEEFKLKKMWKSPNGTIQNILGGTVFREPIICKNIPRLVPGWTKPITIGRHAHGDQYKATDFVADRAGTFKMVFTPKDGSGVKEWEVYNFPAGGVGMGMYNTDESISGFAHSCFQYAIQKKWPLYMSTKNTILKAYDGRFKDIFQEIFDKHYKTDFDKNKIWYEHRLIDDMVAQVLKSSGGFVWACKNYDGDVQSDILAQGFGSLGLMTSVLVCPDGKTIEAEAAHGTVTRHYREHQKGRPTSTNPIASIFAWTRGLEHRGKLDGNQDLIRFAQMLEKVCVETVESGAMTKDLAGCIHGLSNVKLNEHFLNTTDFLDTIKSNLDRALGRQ

SMILES	IC50
FC(F)(F)c1cc2cc(c1)Nc1nc(nc(-c3cccc(C(F)(F)F)n3)n1)NCCCCCC2	6.1 nM
CS(=O)(=O)O.FC(F)(F)c1cc2cc(c1)Nc1nc(nc(-c3cccc(C(F)(F)F)n3)n1)NCCCCCC2	60.9 nM
FC(F)(F)c1cc2cc(c1)Nc1nc(nc(-c3cccc(C(F)(F)F)n3)n1)NCCOCCCC2	64.4 nM
CC1(C)CNc2nc(nc(-c3cccc(C(F)(F)F)n3)n2)Nc2cc(cc(C(F)(F)F)c2)CCCCO1	38.5 nM

More lines, in order of falling IC50, values ahead:

IC50	SMILES
39.9 nM	FC(F)(F)c1cc2cc(c1)Nc1nc(nc(-c3cccc(C(F)(F)F)n3)n1)NCCOC/C=C\C2
37.2 nM	FC(F)(F)c1cc2cc(c1)Nc1nc(nc(-c3cccc(C(F)(F)F)n3)n1)NCCCCCCCC2

target: Isocitrate dehydrogenase [NADP], mitochondrial (Homo sapiens, UniProt P48735, R172K); assay: Inhibition of IDH2 R172K mutant (unknown origin) assessed as reduction in NADPH consumption using alpha-ketoglutarate and NADPH as substrate preincubated with enzyme for 15 mins followed by substrate addition by fluorescence based assay; details: not given
Sequence (P48735 40-452 R172K limits assumed): as the sequence (P48735 40-452 R140Q limits assumed) above, with Q101R, R133K counted along it

SMILES	IC50
FC(F)(F)c1cc2cc(c1)Nc1nc(nc(-c3cccc(C(F)(F)F)n3)n1)NCCCCCC2	219 nM
CS(=O)(=O)O.FC(F)(F)c1cc2cc(c1)Nc1nc(nc(-c3cccc(C(F)(F)F)n3)n1)NCCCCCC2	78.5 nM
FC(F)(F)c1cc2cc(c1)Nc1nc(nc(-c3cccc(C(F)(F)F)n3)n1)NCCOCCCC2	517 nM
CC1(C)CNc2nc(nc(-c3cccc(C(F)(F)F)n3)n2)Nc2cc(cc(C(F)(F)F)c2)CCCCO1	9.6 nM

Now from value to compound:

IC50	SMILES
210 nM	FC(F)(F)c1cc2cc(c1)Nc1nc(nc(-c3cccc(C(F)(F)F)n3)n1)NCCOC/C=C\C2
131 nM	FC(F)(F)c1cc2cc(c1)Nc1nc(nc(-c3cccc(C(F)(F)F)n3)n1)NCCCCCCCC2

target: T1, Isocitrate dehydrogenase [NADP], mitochondrial (Homo sapiens, UniProt P48735); assay: Inhibition of wild type IDH2 (unknown origin) assessed as reduction in NADPH production using sodium(D)-isocitrate and NADP as substrate preincubated with enzyme for 15 mins followed by substrate addition by fluorescence based assay; details: not given
T1 sequence (P48735 whole entry): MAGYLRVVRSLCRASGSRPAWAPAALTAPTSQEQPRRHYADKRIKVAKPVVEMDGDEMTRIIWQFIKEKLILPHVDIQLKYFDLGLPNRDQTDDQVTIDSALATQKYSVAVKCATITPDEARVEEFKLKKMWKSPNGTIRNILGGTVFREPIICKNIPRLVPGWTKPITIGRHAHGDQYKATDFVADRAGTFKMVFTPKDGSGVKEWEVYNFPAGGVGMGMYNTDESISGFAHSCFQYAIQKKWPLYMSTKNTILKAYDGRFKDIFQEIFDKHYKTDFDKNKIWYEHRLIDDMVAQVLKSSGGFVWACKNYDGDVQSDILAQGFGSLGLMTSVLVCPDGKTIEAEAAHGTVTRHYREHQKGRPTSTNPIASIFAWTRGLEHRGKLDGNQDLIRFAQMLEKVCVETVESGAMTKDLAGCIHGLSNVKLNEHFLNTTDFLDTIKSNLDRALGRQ

SMILES	IC50
FC(F)(F)c1cc2cc(c1)Nc1nc(nc(-c3cccc(C(F)(F)F)n3)n1)NCCCCCC2	> 20000 nM
FC(F)(F)c1cc2cc(c1)Nc1nc(nc(-c3cccc(C(F)(F)F)n3)n1)NCCOCCCC2	> 20000 nM
CC1(C)CNc2nc(nc(-c3cccc(C(F)(F)F)n3)n2)Nc2cc(cc(C(F)(F)F)c2)CCCCO1	> 20000 nM

Second part, the compound after the results:

IC50	SMILES
> 20000 nM	FC(F)(F)c1cc2cc(c1)Nc1nc(nc(-c3cccc(C(F)(F)F)n3)n1)NCCOC/C=C\C2
> 20000 nM	FC(F)(F)c1cc2cc(c1)Nc1nc(nc(-c3cccc(C(F)(F)F)n3)n1)NCCCCCCCC2

test system: TF-1; assay: Cytotoxicity aganist human TF-1 cells harboring IDH2 mutant; assay type: functional, cell-based; details: not given

SMILES	IC50
FC(F)(F)c1cc2cc(c1)Nc1nc(nc(-c3cccc(C(F)(F)F)n3)n1)NCCCCCCCC2	> 10000 nM
FC(F)(F)c1cc2cc(c1)Nc1nc(nc(-c3cccc(C(F)(F)F)n3)n1)NCCCCCC2	> 10000 nM

test system: not listed separately; assay: Cytotoxicity aganist human PBMC cells; assay type: cell-based; details: not given

SMILES	IC50
FC(F)(F)c1cc2cc(c1)Nc1nc(nc(-c3cccc(C(F)(F)F)n3)n1)NCCOC/C=C\C2	10000 nM
FC(F)(F)c1cc2cc(c1)Nc1nc(nc(-c3cccc(C(F)(F)F)n3)n1)NCCOCCCC2	10000 nM
CC1(C)CNc2nc(nc(-c3cccc(C(F)(F)F)n3)n2)Nc2cc(cc(C(F)(F)F)c2)CCCCO1	10000 nM

test system: not listed separately; assay: Metabolic stability in human liver microsomes assessed as parent compound remaining at 100 ug/ml measured after 15 mins in presence of NADPH by LC-MS analysis; assay type: ADME, Microsome; details: at 100 µg/mL, read-out: Stabilty

remaining at 0.25 h, 100 ug/ml	SMILES
> 99%	FC(F)(F)c1cc2cc(c1)Nc1nc(nc(-c3cccc(C(F)(F)F)n3)n1)NCCCCCCCC2
95%	FC(F)(F)c1cc2cc(c1)Nc1nc(nc(-c3cccc(C(F)(F)F)n3)n1)NCCCCCC2

test system: not listed separately; assay: Metabolic stability in human liver microsomes assessed as parent compound remaining at 100 ug/ml measured after 45 mins in presence of NADPH by LC-MS analysis; assay type: ADME, Microsome; details: at 100 µg/mL, read-out: Stabilty

remaining at 0.75 h, 100 ug/ml	SMILES
75%	FC(F)(F)c1cc2cc(c1)Nc1nc(nc(-c3cccc(C(F)(F)F)n3)n1)NCCCCCCCC2
94%	FC(F)(F)c1cc2cc(c1)Nc1nc(nc(-c3cccc(C(F)(F)F)n3)n1)NCCCCCC2

test system: not listed separately; assay: Metabolic stability in human liver microsomes assessed as parent compound remaining at 100 ug/ml measured after 90 mins in presence of NADPH by LC-MS analysis; assay type: ADME, Microsome; details: at 100 µg/mL, read-out: Stabilty

remaining at 1.5 h, 100 ug/ml	SMILES
72%	FC(F)(F)c1cc2cc(c1)Nc1nc(nc(-c3cccc(C(F)(F)F)n3)n1)NCCCCCCCC2
85%	FC(F)(F)c1cc2cc(c1)Nc1nc(nc(-c3cccc(C(F)(F)F)n3)n1)NCCCCCC2

test system: not listed separately; assay: Half life in Sprague-Dawley rat at 10 mg/kg, po measured up to 24 hrs by LC-MS/MS analysis; assay type: ADME, organism-based; details: in vivo

half-life	SMILES
6.63 h	CS(=O)(=O)O.FC(F)(F)c1cc2cc(c1)Nc1nc(nc(-c3cccc(C(F)(F)F)n3)n1)NCCCCCC2

test system: not listed separately; assay: Half life in Sprague-Dawley rat at 1 mg/kg, iv measured up to 24 hrs by LC-MS/MS analysis; assay type: ADME, organism-based; details: in vivo

t1/2	SMILES
0.22 h	CS(=O)(=O)O.FC(F)(F)c1cc2cc(c1)Nc1nc(nc(-c3cccc(C(F)(F)F)n3)n1)NCCCCCC2

test system: not listed separately; assay: Cmax in Sprague-Dawley rat at 10 mg/kg, po measured up to 24 hrs by LC-MS/MS analysis; assay type: ADME, organism-based; parameters: route oral, dose 10 mg/kg, time <=24; details: in vivo

Cmax	SMILES
237 ng/mL	CS(=O)(=O)O.FC(F)(F)c1cc2cc(c1)Nc1nc(nc(-c3cccc(C(F)(F)F)n3)n1)NCCCCCC2

test system: not listed separately; assay: Cmax in Sprague-Dawley rat at 1 mg/kg, iv measured up to 24 hrs by LC-MS/MS analysis; assay type: ADME, organism-based; parameters: route intravenous, dose 1 mg/kg, time <=24; details: in vivo

Cmax	SMILES
1255.13 ng/mL	CS(=O)(=O)O.FC(F)(F)c1cc2cc(c1)Nc1nc(nc(-c3cccc(C(F)(F)F)n3)n1)NCCCCCC2

test system: not listed separately; assay: AUC (0 to t) in Sprague-Dawley rat at 10 mg/kg, po measured up to 24 hrs by LC-MS/MS analysis; assay type: ADME, organism-based; parameters: route oral, dose 10 mg/kg, time <=24; details: in vivo

AUC(0-t) at 24 h	SMILES
2700 ng·h/mL	CS(=O)(=O)O.FC(F)(F)c1cc2cc(c1)Nc1nc(nc(-c3cccc(C(F)(F)F)n3)n1)NCCCCCC2

test system: not listed separately; assay: AUC (0 to t) in Sprague-Dawley rat at 1 mg/kg, iv measured up to 24 hrs by LC-MS/MS analysis; assay type: ADME, organism-based; parameters: route intravenous, dose 1 mg/kg, time <=24; details: in vivo

AUC(0-t) at 24 h	SMILES
1370 ng·h/mL	CS(=O)(=O)O.FC(F)(F)c1cc2cc(c1)Nc1nc(nc(-c3cccc(C(F)(F)F)n3)n1)NCCCCCC2

test system: not listed separately; assay: AUC (0 to infinity) in Sprague-Dawley rat at 10 mg/kg, po measured up to 24 hrs by LC-MS/MS analysis; assay type: ADME, organism-based; parameters: route oral, dose 10 mg/kg, time <=24; details: in vivo

AUC(0-inf)	SMILES
2750 ng·h/mL	CS(=O)(=O)O.FC(F)(F)c1cc2cc(c1)Nc1nc(nc(-c3cccc(C(F)(F)F)n3)n1)NCCCCCC2

test system: not listed separately; assay: AUC (0 to infinity) in Sprague-Dawley rat at 1 mg/kg, iv measured up to 24 hrs by LC-MS/MS analysis; assay type: ADME, organism-based; parameters: route intravenous, dose 1 mg/kg, time <=24; details: in vivo

AUC	SMILES
1372.5 ng·h/mL	CS(=O)(=O)O.FC(F)(F)c1cc2cc(c1)Nc1nc(nc(-c3cccc(C(F)(F)F)n3)n1)NCCCCCC2

test system: not listed separately; assay: MRT (0 to t) in Sprague-Dawley rat at 10 mg/kg, po measured upto 24 hrs by LC-MS/MS analysis; assay type: ADME, organism-based; details: in vivo

MRT last at 24 h	SMILES
6.03 h	CS(=O)(=O)O.FC(F)(F)c1cc2cc(c1)Nc1nc(nc(-c3cccc(C(F)(F)F)n3)n1)NCCCCCC2

test system: not listed separately; assay: MRT (0 to t) in Sprague-Dawley rat at 1 mg/kg, iv measured upto 24 hrs by LC-MS/MS analysis; assay type: ADME, organism-based; details: in vivo

MRT(t)	SMILES
2.4 h	CS(=O)(=O)O.FC(F)(F)c1cc2cc(c1)Nc1nc(nc(-c3cccc(C(F)(F)F)n3)n1)NCCCCCC2

test system: not listed separately; assay: Oral bioavailability Sprague-Dawley rat at 10 mg/kg measured up to 24 hrs by LC-MS/MS analysis; assay type: ADME, organism-based; details: in vivo

bioavailability	SMILES
19.8%	CS(=O)(=O)O.FC(F)(F)c1cc2cc(c1)Nc1nc(nc(-c3cccc(C(F)(F)F)n3)n1)NCCCCCC2

From ChEMBL document CHEMBL4706511, “Structure-based design, synthesis and bioactivity evaluation of macrocyclic inhibitors of mutant isocitrate dehydrogenase 2 (IDH2) displaying activity in acute myeloid leukemia cells” (Eur J Med Chem, 2020)
